These are literature values, as cited in US20210337800A1, “METHOD AND SYSTEM OF IMPROVING THE PERSONAL PROTECTIVE EQUIPMENT OF […] AND THE GENERAL PUBLIC USING ANT[…]” (Sockdocs Inc., priority 2020, published 2021).

The series relates to viruses. The following applies: testing in 2006; no method or virus named.

On to `CCCCCCCCCCCCCCCCCC[N+](C)(C)CCC[Si](OC)(OC)OC.[Cl-]` [3-(trimethoxysilyl) propyldimethyloctadecyl ammonium chloride], for which the anti-viral activity result is recorded as “showed anti-viral activity”.
